Test results published in paper PMC12207590, “Substrate Specificity of the Organic Cation Transporters MATE1 and MATE2K and Functional Overlap with OCT1 and OCT2” (Journal of Medicinal Chemistry, 2025).
Like-named read-outs stand apart in the source and are kept apart here.

Columns and labels:
[1] = biological target: MATE2K (Homo sapiens, UniProt Q86VL8); experiment: Uptake ratio in MATE2K-overexpressing HEK293 cells vs empty vector (2.5 μM, 1 min, HPLC-MS/MS); type: cell-based; conditions: for MATE2K ratio in this study: Table S1
[2] = biological target: T1, MATE1 (Homo sapiens, UniProt Q96FL8); experiment: Uptake ratio in MATE1-overexpressing HEK293 cells vs empty vector (2.5 μM, 1 min, HPLC-MS/MS); type: cell-based; conditions: for MATE1 ratio in this study: Table S1
T1 sequence (Q96FL8 1-570): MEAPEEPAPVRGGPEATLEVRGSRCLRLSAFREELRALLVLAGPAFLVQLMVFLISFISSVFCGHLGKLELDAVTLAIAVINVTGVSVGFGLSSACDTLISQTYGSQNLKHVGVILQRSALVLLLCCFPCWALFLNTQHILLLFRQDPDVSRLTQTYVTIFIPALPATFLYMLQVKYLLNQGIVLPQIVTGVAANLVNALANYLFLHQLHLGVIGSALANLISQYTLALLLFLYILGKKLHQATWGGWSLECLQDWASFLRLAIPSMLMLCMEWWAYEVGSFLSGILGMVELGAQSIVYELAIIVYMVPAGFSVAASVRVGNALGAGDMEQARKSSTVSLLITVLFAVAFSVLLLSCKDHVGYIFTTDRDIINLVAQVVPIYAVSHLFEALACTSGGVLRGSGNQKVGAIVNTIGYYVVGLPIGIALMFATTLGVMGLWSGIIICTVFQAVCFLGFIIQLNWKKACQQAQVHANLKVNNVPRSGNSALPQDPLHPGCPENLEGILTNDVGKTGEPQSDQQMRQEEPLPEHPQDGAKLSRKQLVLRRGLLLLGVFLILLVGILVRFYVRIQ

[3] = fold uptake over empty vector, 2.5 μM, 1 min
[4] = uptake ratio MATE2K-overexpressing vs empty-vector HEK293 cells, 2.5 μM, 1 min, mean
[5] = uptake ratio MATE1-overexpressing vs empty-vector HEK293 cells, 2.5 μM, 1 min, mean
[6] = mean ratio of uptake in MATE2K-overexpressing HEK293 cells vs empty vector, 2.5 μM, 1 min
[7] = mean ratio of uptake in MATE1-overexpressing HEK293 cells vs empty vector, 2.5 μM, 1 min

Chain of MATE2K (Q86VL8 1-566 isoform Q86VL8-3): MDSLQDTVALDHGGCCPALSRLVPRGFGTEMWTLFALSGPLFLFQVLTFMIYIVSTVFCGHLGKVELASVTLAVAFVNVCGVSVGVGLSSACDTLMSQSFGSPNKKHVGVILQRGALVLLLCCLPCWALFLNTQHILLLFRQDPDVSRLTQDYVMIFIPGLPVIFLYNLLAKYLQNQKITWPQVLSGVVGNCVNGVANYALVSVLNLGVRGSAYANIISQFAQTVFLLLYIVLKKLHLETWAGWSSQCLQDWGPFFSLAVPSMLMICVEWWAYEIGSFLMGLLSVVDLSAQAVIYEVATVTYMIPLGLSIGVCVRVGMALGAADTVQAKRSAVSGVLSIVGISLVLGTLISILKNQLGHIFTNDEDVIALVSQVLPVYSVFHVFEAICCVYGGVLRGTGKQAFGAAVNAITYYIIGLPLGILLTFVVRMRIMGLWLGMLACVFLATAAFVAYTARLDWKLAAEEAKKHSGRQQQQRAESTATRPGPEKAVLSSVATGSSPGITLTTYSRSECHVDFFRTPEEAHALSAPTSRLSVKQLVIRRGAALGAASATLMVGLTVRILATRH

## C1CNCCN1 [Piperazine]
[1]; [3]
  MATE2K ratio: 1.03
[2]; [3]
  MATE1 ratio: 0.92

## CCOC(=O)c1ccc(OC(=O)CCCCCNC(=N)N)cc1 [Gabexate]
[1]; [3]
  MATE2K ratio: 4.18
[2]; [3]
  MATE1 ratio: 5.78

## CN1C(=O)CC[C@H]1c1cccnc1 [Cotinine]
[1]; [3]
  MATE2K ratio: 1.20
[2]; [3]
  MATE1 ratio: 1.11

## CCCCNC(=N)NC(=N)N [Buformin]
[1]
  MATE2 (uptake ratio): 2.37
  MATE2K ratio: 2.37
[2]
  MATE1 (uptake ratio): 24.8
  MATE1 ratio: 24.80

## C[C@H](NCCc1ccc(O)cc1)[C@H](O)c1ccc(O)cc1 (racemic) [Ritodrine]
[1]; [3]
  MATE2K ratio: 2.23
[1]; [4]
  MATE2: 2.23
[2]; [3]
  MATE1 ratio: 8.03
[2]; [5]
  MATE1: 8.03

## CCCCNc1cc(C(=O)O)cc(S(N)(=O)=O)c1Oc1ccccc1 [Bumetanide]
[1]; [3]
  MATE2K ratio: 1.18
[1]; [6]
  MATE2 (uptake ratio): 1.18
[2]; [3]
  MATE1 ratio: 2.02
[2]; [7]
  MATE1 (uptake ratio): 2.02
[2]; organic anions tested
  substrate of MATE1: substrates of MATE1

## OCCN1CCN(CCCN2c3ccccc3Sc3ccc(Cl)cc32)CC1 [Perphenazine]
[1]; [3]
  MATE2K ratio: 0.94
[2]; [3]
  MATE1 ratio: 1.09

## O=C(O)c1cccnc1 [Niacin]
[1]; [3]
  MATE2K ratio: 0.90
[2]; [3]
  MATE1 ratio: 1.06

## C[N+]12CCC(CC1)C(OC(=O)C(O)(c1ccccc1)c1ccccc1)C2 (stereo not shown) [Clidinium]
[1]; [3]
  MATE2K ratio: 1.79
[1]; [6]
  MATE2 (uptake ratio): 1.79
[2]; [3]
  MATE1 ratio: 16.18
[2]; [7]
  MATE1 (uptake ratio): 16.18

## O=C(Nc1nc2cccc(-c3ccc(CN4CCS(=O)(=O)CC4)cc3)n2n1)C1CC1 [Filgotinib]
[1]; [3]
  MATE2K ratio: 1.01
[2]; [3]
  MATE1 ratio: 0.89

## N[C@@H]1C[C@H]1c1ccccc1 (racemic) [Tranylcypromine]
[1]
  MATE2: 1.98
[2]
  MATE1: 1.45

## CN(C)CCCN1c2ccccc2Sc2ccc(Cl)cc21 [Chlorpromazine]
[1]; [3]
  MATE2K ratio: 1.33
[1]; [6]
  MATE2 (uptake ratio): 1.33
[2]; [3]
  MATE1 ratio: 1.42
[2]; [7]
  MATE1 (uptake ratio): 1.42

## Nc1ccc(S(=O)(=O)c2ccc(N)cc2)cc1 [Dapsone]
[1]; [3]
  MATE2K ratio: 0.95
[2]; [3]
  MATE1 ratio: 0.89

## CNCC(O)c1ccc(O)cc1.CNCC(O)c1ccc(O)cc1.O=C(O)C(O)C(O)C(=O)O (stereo not shown) [Synephrine]
[1]
  MATE2: 1.04
[2]
  MATE1: 6.5

## C[N+](C)(C)C[C@@H](CC(=O)[O-])OC(=O)CCC(=O)O [Succinylcarnitine]
[1]; [3]
  MATE2K ratio: 1.38
[1]; [4]
  MATE2: 1.38
[2]; [3]
  MATE1 ratio: 0.54
[2]; [5]
  MATE1: 0.54

## CCCCC[C@H](O)/C=C/[C@H]1[C@H](O)CC(=O)[C@@H]1C/C=C\CCCC(=O)O [Prostaglandin E2]
[1]
  MATE2: 1.21
  MATE2K ratio: 1.21
[2]
  MATE1: 1.35
  MATE1 ratio: 1.35

## CCS(=O)(=O)N1CC(CC#N)(n2cc(-c3ncnc4[nH]ccc34)cn2)C1 [Baricitinib]
[1]; 2.5 μM, 1 min
  MATE2K ratio in this study: 1.04
[1]; [3]
  MATE2K ratio: 1.04
[1]; [6]
  MATE2 (uptake ratio): 1.04
[2]; 2.5 μM, 1 min
  MATE1 ratio in this study: 0.82
[2]; [3]
  MATE1 ratio: 0.82
[2]; [7]
  MATE1 (uptake ratio): 0.82

## N=C(N)N1CCc2ccccc2C1 [Debrisoquine]
[1]; 2.5 μM, 1 min
  MATE2K ratio in this study: 5.05
[1]; [3]
  MATE2K ratio: 5.05
[2]; 2.5 μM, 1 min
  MATE1 ratio in this study: 8.16
[2]; [3]
  MATE1 ratio: 8.16

## CCNCC(O)c1cccc(O)c1 (stereo not shown) [Etilefrine]
[1]; [3]
  MATE2K ratio: 2.04
[2]; [3]
  MATE1 ratio: 9.81

## NC(=O)NCCC[C@H](N)C(=O)O [Citrulline]
[1]
  MATE2 (uptake ratio): 1.26
  MATE2K ratio: 1.26
[2]
  MATE1 (uptake ratio): 0.77
  MATE1 ratio: 0.77

## CC(N)Cc1cccc(C(F)(F)F)c1 (stereo not drawn) [Norfenfluramine (+), Norfenfluramine]
[1]
  MATE2K ratio: 1.45
[2]
  MATE1 ratio: 1.22

## Nc1ccc2[nH]ncc2c1 [5-Aminoindazole]
[1]; [3]
  MATE2K ratio: 0.73
[1]; [6]
  MATE2 (uptake ratio): 0.73
[2]; [3]
  MATE1 ratio: 0.99
[2]; [7]
  MATE1 (uptake ratio): 0.99

## COc1cc2c(cc1OC)CC(=O)N(CCCN(C)C[C@H]1Cc3cc(OC)c(OC)cc31)CC2 [Ivabradine]
[1]; [3]
  MATE2K ratio: 1.23
[2]; [3]
  MATE1 ratio: 1.14

## CCOC(=O)C1=C[C@@H](OC(CC)CC)[C@H](NC(C)=O)[C@@H](N)C1 [Oseltamivir]
[1]; [3]
  MATE2K ratio: 1.04
[2]; [3]
  MATE1 ratio: 1.18

## CN(C)CCc1c[nH]c2ccc(Cn3cncn3)cc12 [Rizatriptan]
[1]; [3]
  MATE2K ratio: 3.35
[1]; [4]
  MATE2: 3.35
[2]; [3]
  MATE1 ratio: 6.63
[2]; [5]
  MATE1: 6.63

## COc1cc(CCN)ccc1O [3-Methoxy-p-tyramine]
[1]
  MATE2 (uptake ratio): 1.39
  MATE2K ratio: 1.39
[2]
  MATE1 (uptake ratio): 4.05
  MATE1 ratio: 4.05

## CCN1CCN(Cc2ccc(Nc3ncc(F)c(-c4cc(F)c5nc(C)n(C(C)C)c5c4)n3)nc2)CC1 [Abemaciclib]
[1]; [3]
  MATE2K ratio: 1.01
[1]; [6]
  MATE2 (uptake ratio): 1.01
[2]; [3]
  MATE1 ratio: 1.06
[2]; [7]
  MATE1 (uptake ratio): 1.06

## CC(C)(C)NCC(O)COc1ccccc1C#N (stereo not shown) [Bunitrolol]
[1]; [3]
  MATE2K ratio: 1.31
[1]; [6]
  MATE2 (uptake ratio): 1.31
[2]; [3]
  MATE1 ratio: 1.17
[2]; [7]
  MATE1 (uptake ratio): 1.17

## CN(C)CCc1ccc(O)cc1 [Hordenine]
[1]
  MATE2K ratio: 1.20
[2]
  MATE1 ratio: 1.16

## NCCc1cccc(O)c1 [m-Tyramine]
[1]; [3]
  MATE2K ratio: 1.31
[2]; [3]
  MATE1 ratio: 8.90

## CNCC[C@@H](Oc1ccccc1C)c1ccccc1 [Atomoxetine (S), Atomoxetine]
[1]; [3]
  MATE2K ratio: 1.03
[1]; [6]
  MATE2 (uptake ratio): 1.03
[2]; [3]
  MATE1 ratio: 1.16
[2]; [7]
  MATE1 (uptake ratio): 1.16

## NCCc1cc(O)c(O)cc1O [6-Hydroxydopamine]
[1]
  MATE2 (uptake ratio): 1.24
  MATE2K ratio: 1.24
[2]
  MATE1 (uptake ratio): 1.05
  MATE1 ratio: 1.05

## CCN(CC)CCNC(=O)c1ccc(NS(C)(=O)=O)cc1 [Sematilide]
[1]; [3]
  MATE2K ratio: 6.42
[1]; [4]
  MATE2: 6.42
[2]; [3]
  MATE1 ratio: 19.10
[2]; [5]
  MATE1: 19.1

## COc1ccc([C@@H](CN(C)C)C2(O)CCCCC2)cc1 [Venlafaxine (S)]
[1]
  MATE2: 1.44
[2]
  MATE1: 1.22

## OC(CCN1CCCCC1)(c1ccccc1)c1ccccc1 [Pridinol]
[1]; [3]
  MATE2K ratio: 1.27
[2]; [3]
  MATE1 ratio: 1.18

## C=CCN1CCCC1CNC(=O)c1cc(S(N)(=O)=O)cc(OC)c1OC (stereo not shown) [Veralipride]
[1]; [4]
  MATE2: 4.21
[2]; [5]
  MATE1: 6.39

## CNC[C@H](O)c1cccc(O)c1 [Phenylephrine (L), Phenylephrine]
[1]; [3]
  MATE2K ratio: 2.15
[2]; [3]
  MATE1 ratio: 18.71

## CNCCc1c[nH]c2ccc(O)cc12 [N-Methylserotonin]
[1]
  MATE2K ratio: 8.85
[2]
  MATE1 ratio: 26.34

## NCCc1c[nH]cn1 [Histamine]
[1]; [3]
  MATE2K ratio: 1.40
[2]; [3]
  MATE1 ratio: 19.90

## COc1cc2ncnc(Nc3ccc(F)c(Cl)c3)c2cc1OCCCN1CCOCC1 [Gefitinib]
[1]; [3]
  MATE2K ratio: 0.88
[2]; [3]
  MATE1 ratio: 0.89

## CC(C)N(CCC(C(N)=O)(c1ccccc1)c1ccccn1)C(C)C (stereo not shown) [Disopyramide]
[1]; [3]
  MATE2K ratio: 1.21
[2]; [3]
  MATE1 ratio: 1.26

## CC1(C)OC[C@@H](COC(=O)CCc2ccc(OC[C@@H](O)CNCCNC(=O)N3CCOCC3)cc2)O1 [Landiolol]
[1]; [3]
  MATE2K ratio: 2.87
[2]; [3]
  MATE1 ratio: 3.68

## NCC(O)c1cccc(O)c1 (stereo not shown) [Norphenylephrine]
[1]; [3]
  MATE2K ratio: 1.22
[2]; [3]
  MATE1 ratio: 26.13

## CN1[C@@H]2CC[C@H]1C[C@@H](OC(=O)c1c[nH]c3ccccc13)C2 [Tropisetron]
[1]; [4]
  MATE2: 1.15
[2]; [5]
  MATE1: 1.22

## O=C(O[C@H]1C[N+]2(CCCOc3ccccc3)CCC1CC2)C(O)(c1cccs1)c1cccs1 [Aclidinium]
[1]; [3]
  MATE2K ratio: 1.17
[1]; [6]
  MATE2 (uptake ratio): 1.17
[2]; [3]
  MATE1 ratio: 4.73
[2]; [7]
  MATE1 (uptake ratio): 4.73

## Oc1ccc2c3c1O[C@H]1[C@H](O)CC[C@@]4(O)[C@@H](C2)N(CC2CC2)CC[C@]314 [6-beta-Naltrexol]
[1]
  MATE2 (uptake ratio): 1.2
  MATE2K ratio: 1.20
[2]
  MATE1 (uptake ratio): 1.2
  MATE1 ratio: 1.20

## CNCC(O)c1ccccc1 (stereo not shown) [Halostachine]
[1]; [3]
  MATE2K ratio: 1.52
[2]; [3]
  MATE1 ratio: 1.41

## CNCCc1ccccc1 [N-Methyl-2-phenylethylamine]
[1]; [3]
  MATE2K ratio: 1.50
[2]; [3]
  MATE1 ratio: 1.27

## CCCCC[C@H](O)/C=C/[C@@H]1[C@@H](C/C=C\CCCC(=O)O)[C@@H](O)C[C@H]1O [Prostaglandin F2alpha]
[1]; [3]
  MATE2K ratio: 0.92
[1]; [4]
  MATE2: 0.92
[2]; [3]
  MATE1 ratio: 1.41
[2]; [5]
  MATE1: 1.41

## C[N+](C)(C)C[C@H](O)CC(=O)[O-] [Carnitine]
[1]
  MATE2 (uptake ratio): 1.13
  MATE2K ratio: 1.13
[2]
  MATE1 (uptake ratio): 1.16
  MATE1 ratio: 1.16

## COc1ccc(CCNC[C@H](O)c2ccc(O)cc2)cc1OC [Denopamine (R), Denopamine]
[1]; [3]
  MATE2K ratio: 1.69
[2]; [3]
  MATE1 ratio: 2.32

## CNC[C@H](O)c1ccc(O)c(O)c1 [Epinephrine (-), Epinephrine]
[1]; [3]
  MATE2K ratio: 3.98
[2]; [3]
  MATE1 ratio: 37.78
